{
  "source": "patent US11426402B2",
  "about": "“IRE1 activating compounds for use in therapy” (The Scripps Research Institute, priority 2019, dated 2022)",
  "key": {"SHSY5Y cells [1]": {"system": "SHSY5Y cells", "experiment": "TMRE staining of mitochondrial membrane potential in SHSY5Y cells", "format": "cell-based", "conditions": "10 μM, 72 hours", "protocol": "(§1) FIGS. 6A-6C. Histograms showing TMRE staining of SH-SY5Y cells transiently expressing empty vector (Mock) or Swedish mutant APP in the presence or absence of 474 (10 μM) for 72 hours (FIG. 6A). Quantification of TMRE staining in (A). Error bars represent SEM for n=3 replicates. Statistics calculated from one-tailed Student's t-test. *p<0.05, **p<0.01, ***p<0.001 (FIG. 613). Graph showing relative luminescence from CellTiterGlo assay of SH-SY5Y cells transiently expressing empty vector or Swedish mutant APP cultured in galactose media for 72 hours in the presence or absence of IRE1 activator 474 (10 μM). Error bars represent SEM for n=3 replicates. Statistics calculated from one-tailed Student's t-test. *p<0.05, **p<0.01, ***p<0.001 (FIG. 6C).\nCells were treated as indicated then incubated with TMRE dye (200 nM) for 30 mins at 37° C. Samples were collected by trypsinization. Trypsin was neutralized by washing into cell culture media and then samples were washed twice in DPBS. […] Fluorescence intensity of TMRE was recorded on the PE channel of a Novocyte Flow Cytometer (ACEA Biosciences, Inc.). Data are presented as mean of the fluorescence intensity from 3 experiments. For each experiment, 10,000 cells per condition in triplicates were recorded.\nNext, mitochondrial membrane potential was monitored in SHSY5Y cells overexpressing APP^SW and that had been treated with 474. […]"}, "SHSY5Y cells [2]": {"system": "SHSY5Y cells", "experiment": "CellTiterGlo ATP levels in SHSY5Y cells overexpressing APP SW", "format": "cell-based", "conditions": "APP SW overexpressing cells cultured in galactose, 10 μM, 72 hours", "protocol": "as §1\nFor determination of relative cellular ATP levels, SHSY5Y cells were seeded into flat black, poly-D-lysine coated 96-well plates (Corning). […] Luminescence was then measured in an Infinite F200 PRO plate reader (Tecan and corrected for background signal. All measurements were performed in biologic triplicate.\nMitochondrial depolarization decreases the capacity for cells to produce ATP through oxidative phosphorylation at the inner mitochondrial membrane. […] Accordingly, ATP levels were monitored in SHSY5Y cells overexpressing APP^SW and incubated in media that was supplemented with glucose or galactose. […]"}, "[3]": {"experiment": "Toxicity, body weight and food intake in DIO mice", "format": "in vivo", "protocol": "FIGS. 7A-7D. RT-PCR of Xbp1s and the IRE1/XBP1s target gene Erdj4 from adipose tissue post single IP dose of 474 (FIG. 7A). Liver RNAseq profiles of ATF6, IRE1 and PERK target genes expressed as log 2 fold change of chronic 474 treatment compared to vehicle (FIG. 7B). Body weight (FIG. 7C) and food intake (FIG. 70) over 6 weeks of dosing.\n(§2) To test the efficacy of pharmacologic IRE1 activation in mitigating T2D, we chronically administered 474 by once-daily IP injections at 50 mg/kg for a period of 6 weeks to Diet-Induced Obese (DIO) mice, a model of T2D."}, "[4]": {"system": "Diet-Induced Obese (DIO) mice", "experiment": "Glucose tolerance, serum glucose and insulin in DIO mice", "format": "in vivo, mouse", "conditions": "4 weeks of dosing", "text": "FIGS. 8A-8E. Oral glucose tolerance test in DIO mice treated with either Vehicle or 474 for 3 weeks (n=8) (FIG. 8A). Serum glucose and insulin levels post 4 weeks of dosing with 474 or vehicle (FIG. 8B). Glucose stimulated insulin secretion in islets isolated from 474 or vehicle treated mice. (FIG. 8C). Hepatic triglyceride content (FIG. 8D) and gene expression profiles of gluconeogenic genes (FIG. 8E) at 6 weeks post dosing.\nas §2\nThis effect can be rationalized, at least in part, by enhanced pancreatic f-cell function in 474-treated […], as shown by our studies in isolated pancreatic islets from vehicle- and 474-treated mice. […] Given the well-documented link between IRE1 and hepatic metabolism in T2D^55, we also examined markers of liver function after 474 treatment. We found reduced liver triglyceride accumulation in 474-treated mice relative to controls (FIG. 80)."}},
  "data": [
    {"smiles": "Cc1ccc(OCCN(C)C(=O)Cn2cc(NC(=O)CCOc3ccccc3)cn2)cc1", "note": "[Compound 474]", "values": [
      {"measurement": "APP SW-associated reductions in mitochondrial membrane potential", "setting": "SHSY5Y cells [1]; SHSY5Y overexpressing APP SW", "result": "prevented"},
      {"measurement": "mitochondrial membrane potential", "setting": "SHSY5Y cells [1]; mock-transfected cells", "result": "did not influence"},
      {"measurement": "ATP levels", "setting": "SHSY5Y cells [2]", "result": "increased"},
      {"measurement": "body weight and food intake", "setting": "[3]; 6-week dosing period", "result": "remaining similar in all groups"},
      {"measurement": "toxicity", "setting": "[3]; DIO mice, once-daily IP 50 mg/kg, 6 weeks", "result": "no evident toxicity"},
      {"measurement": "basal insulin levels", "setting": "[4]", "result": "more prominent decrease"},
      {"measurement": "fasting glucose", "setting": "[4]", "result": "significant reduction"}
    ]}
  ]
}
